Laboratory results reported in patent US20090281090A1, “BIOMARKERS FOR THE PREDICTION OF RESPONSIVENESS TO CLOZAPINE TREATMENT” (NOVARTIS AG, priority 2004, published 2009).

How the values were obtained:
[1] = system: patients with schizophrenia or schizoaffective disorders; experiment: InterSePT pharmacogenetic analysis: DAT1 3'UTR VNTR polymorphism vs Type 1 event / drug response; format: in vivo, human; settings: for Adjusted Hazard Ratio (95% CI), association between VNTR polymorphism and Type 1 event: Cox model adjusted for age, gender, substance abuse, lifetime suicide attempts; for Unadjusted Hazard Ratio (95% CI), association between VNTR polymorphism and Type 1 event: Cox proportional hazards model
Procedure: Association between a VNTR polymorphism in the 3′UTR region of the DAT1 gene and clozapine response. The objective of this EXAMPLE was to evaluate potential association between a VNTR polymorphism in the 3′UTR region of the Dopamine Transporter 1 gene (SLC6A3; DAT1) and drug response in the patients with schizophrenia or schizoaffective disorders treated with clozapine.
A retrospective pharmacogenetic analysis was conducted in an attempt to evaluate potential association between a variable number of tandem repeats (VNTR) polymorphism in the 3′UTR region of the DAT1 gene and drug response in the patients with schizophrenia or schizoaffective disorders treated with clozapine.
A multicenter, randomized, two-year study comparing the risk for suicidal behaviour in patients treated with clozapine vs olanzapine had already been conducted in patients with schizophrenia or schizoaffective disorders (see above). […] See, published PCT patent application WO 2004/074513.
Genotyping. Four hundred and two samples from the patients enrolled in the InterSePT study (see above) were collected and genotyped for the VNTR polymorphism. A total of 402 subjects enrolled in the InterSePT study consented to Pharmacogenetics study in accordance with protocols approved by local ethics committees. 15 ml of blood were collected from the patients at the trial sites. The DNA was extracted by Covance (Indianapolis, USA) using the PUREGENE™ DNA Isolation Kit (D50K) according to the manufacturer's recommendations. VNTR genotyping was performed using PCR approach as described by Kidd (Kidd Laboratory, http://info.med.yale.edu/genetics/kkidd/SLC6A3—3VNTR.html). The sense and antisense PCR primers were 5′-GGTGTAGGGAACGGCCTGAGAG-3′ (SEQ ID NO:3) and 5′-CTTCCTGGAGGTCACGGCTCAAGG-3′ (SEQ ID NO:4), respectively. Approximately 100-200 ng of genomic DNA was needed for each assay. Thirty cycles of PCR were performed with the condition of 94° C. (30″), 62° C. (30″) and 72° C. (30″). PCR products were analyzed using 2% agarose gel.
Clinical assessments. For the primary efficacy variable, time (in days, after randomization) to meeting any one of the following two criteria: (a) a significant suicide attempt; and (b) hospitalization due to imminent suicide risk. Type 1 Event is defined as combination of above two items. For secondary efficacy variables, the following were determined: (a) percentage of subjects with significant suicide attempts; (b) percentage of subjects with hospitalization due to imminent suicide risk; (c) change from baseline in the total score of the Positive and Negative Syndrome Scale (PANSS); (d) change from baseline in the Positive subtotal of PANSS; and (e) change from baseline in the Negative subtotal of PANSS.
Statistic analysis. The SAS Version 8.2 for Windows package was used for statistical analysis. The continuous and dischotomous variables in demographic differences between the genotype groups were compared using non-parametric ANOVA and Fisher's exact test, respectively. The differential effects of genotypes on the time to Type 1 event were evaluated using log rank test. Age, gender, substance abuse, and lifetime suicide attempts were adjusted in further analysis using the Cox proportional hazards model.

[2] = system: patients with schizophrenia or schizoaffective disorders; experiment: as above; format: in vivo, human
[3] = All with schizoaffective disorder, genotype L/L (10≦/10≦)
[4] = All with schizoaffective disorder, genotype S/L (10≦/9≧)
[5] = All with schizoaffective disorder, genotype S/S (9≧/9≧)
[6] = All with schizophrenia, genotype L/L (10≦/10≦)
[7] = All with schizophrenia, genotype S/L (10≦/9≧)
[8] = All with schizophrenia, genotype S/S (9≧/9≧)
[9] = Caucasian, VNTR genotype 9≧/9≧, end of study
[10] = Caucasian, VNTR genotype 10≦/9≧, end of study
[11] = Caucasian, VNTR genotype 10≦/10≦, end of study
[12] = Caucasians with schizoaffective disorder, genotype L/L (10≦/10≦)
[13] = Caucasians with schizoaffective disorder, genotype S/L (10≦/9≧)
[14] = Caucasians with schizoaffective disorder, genotype S/S (9≧/9≧)
[15] = Caucasians with schizophrenia, genotype L/L (10≦/10≦)
[16] = Caucasians with schizophrenia, genotype S/L (10≦/9≧)
[17] = Caucasians with schizophrenia, genotype S/S (9≧/9≧)
[18] = Whole race group, VNTR genotype 9≧/9≧, end of study
[19] = Whole race group, VNTR genotype 10≦/9≧, end of study
[20] = Whole race group, VNTR genotype 10≦/10≦, end of study

CN1CCN(C2=Nc3cc(Cl)ccc3Nc3ccccc32)CC1 [Clozapine, 8-chloro-11-(4-methyl-1-piperazinyl)-5H-dibenzo[be][1,4]diazepine]
End point Type 1 event: No [1, 3]: 30 (75%) numbers of subjects (%)
End point Type 1 event: Yes [1, 3]: 10 (25%) numbers of subjects (%)
End point Type 1 event: No [1, 4]: 25 (83%) numbers of subjects (%)
End point Type 1 event: Yes [1, 4]: 5 (17%) numbers of subjects (%)
End point Type 1 event: No [1, 5]: 7 (70%) numbers of subjects (%)
End point Type 1 event: Yes [1, 5]: 3 (30%) numbers of subjects (%)
End point Type 1 event: No [1, 6]: 53 (87%) numbers of subjects (%)
End point Type 1 event: Yes [1, 6]: 8 (13%) numbers of subjects (%)
End point Type 1 event: No [1, 7]: 35 (87%) numbers of subjects (%)
End point Type 1 event: Yes [1, 7]: 5 (13%) numbers of subjects (%)
End point Type 1 event: No [1, 8]: 4 (50%) numbers of subjects (%)
End point Type 1 event: Yes [1, 8]: 4 (50%) numbers of subjects (%)
End point Type 1 event: No [1, 9]: 9 (56%) numbers of subjects (%)
End point Type 1 event: Yes [1, 9]: 7 (44%) numbers of subjects (%)
End point Type 1 event: No [1, 10]: 45 (85%) numbers of subjects (%)
End point Type 1 event: Yes [1, 10]: 8 (15%) numbers of subjects (%)
End point Type 1 event: No [1, 11]: 67 (83%) numbers of subjects (%)
End point Type 1 event: Yes [1, 11]: 14 (17%) numbers of subjects (%)
End point Type 1 event: No [1, 12]: 28 (76%) numbers of subjects (%)
End point Type 1 event: Yes [1, 12]: 9 (24%) numbers of subjects (%)
End point Type 1 event: No [1, 13]: 22 (85%) numbers of subjects (%)
End point Type 1 event: Yes [1, 13]: 4 (15%) numbers of subjects (%)
End point Type 1 event: No [1, 14]: 7 (70%) numbers of subjects (%)
End point Type 1 event: Yes [1, 14]: 3 (30%) numbers of subjects (%)
End point Type 1 event: No [1, 15]: 39 (89%) numbers of subjects (%)
End point Type 1 event: Yes [1, 15]: 5 (11%) numbers of subjects (%)
End point Type 1 event: No [1, 16]: 23 (85%) numbers of subjects (%)
End point Type 1 event: Yes [1, 16]: 4 (15%) numbers of subjects (%)
End point Type 1 event: No [1, 17]: 2 (33%) numbers of subjects (%)
End point Type 1 event: Yes [1, 17]: 4 (67%) numbers of subjects (%)
Adjusted Hazard Ratio (95% CI), association between VNTR polymorphism and Type 1 event ([1]; Caucasians): 0.296 (0.120-0.733)
Unadjusted Hazard Ratio (95% CI), association between VNTR polymorphism and Type 1 event ([1]; Caucasians): 0.307 (0.130-0.723)
End point Type 1 event: No [1, 18]: 11 (61%) numbers of subjects (%)
End point Type 1 event: Yes [1, 18]: 7 (39%) numbers of subjects (%)
End point Type 1 event: No [1, 19]: 60 (86%) numbers of subjects (%)
End point Type 1 event: Yes [1, 19]: 10 (14%) numbers of subjects (%)
End point Type 1 event: No [1, 20]: 83 (82%) numbers of subjects (%)
End point Type 1 event: Yes [1, 20]: 18 (18%) numbers of subjects (%)
patients calculated to be poor responders ([1]; according to the SLC6A3 genotypes): about 10%
Adjusted Hazard Ratio (95% CI), association between VNTR polymorphism and Type 1 event ([1]; whole population): 0.396 (0.167-0.936)
Unadjusted Hazard Ratio (95% CI), association between VNTR polymorphism and Type 1 event ([1]; whole population): 0.342 (0.148-0.788)
patients who experienced Type 1 events at the end of study ([2]; subpopulation with the two risk factors (VNTR in 3'-UTR and exon 9 polymorphism of SLC6A3)): About 40%
patients who had Type 1 events at the end of study ([2]; subpopulation without the two risk factors (VNTR in 3'-UTR and exon 9 polymorphism of SLC6A3)): 15%

Cc1cc2c(s1)Nc1ccccc1N=C2N1CCN(C)CC1 [Olanzapine, olanzapine]
End point Type 1 event: No [1, 3]: 22 (60%) numbers of subjects (%)
End point Type 1 event: Yes [1, 3]: 15 (40%) numbers of subjects (%)
End point Type 1 event: No [1, 4]: 22 (67%) numbers of subjects (%)
End point Type 1 event: Yes [1, 4]: 11 (33%) numbers of subjects (%)
End point Type 1 event: No [1, 5]: 4 (57%) numbers of subjects (%)
End point Type 1 event: Yes [1, 5]: 3 (43%) numbers of subjects (%)
End point Type 1 event: No [1, 6]: 50 (82%) numbers of subjects (%)
End point Type 1 event: Yes [1, 6]: 11 (18%) numbers of subjects (%)
End point Type 1 event: No [1, 7]: 32 (76%) numbers of subjects (%)
End point Type 1 event: Yes [1, 7]: 10 (24%) numbers of subjects (%)
End point Type 1 event: No [1, 8]: 8 (80%) numbers of subjects (%)
End point Type 1 event: Yes [1, 8]: 2 (20%) numbers of subjects (%)
End point Type 1 event: No [1, 9]: 6 (60%) numbers of subjects (%)
End point Type 1 event: Yes [1, 9]: 4 (40%) numbers of subjects (%)
End point Type 1 event: No [1, 10]: 45 (76%) numbers of subjects (%)
End point Type 1 event: Yes [1, 10]: 14 (24%) numbers of subjects (%)
End point Type 1 event: No [1, 11]: 59 (76%) numbers of subjects (%)
End point Type 1 event: Yes [1, 11]: 19 (24%) numbers of subjects (%)
End point Type 1 event: No [1, 12]: 22 (67%) numbers of subjects (%)
End point Type 1 event: Yes [1, 12]: 11 (33%) numbers of subjects (%)
End point Type 1 event: No [1, 13]: 21 (75%) numbers of subjects (%)
End point Type 1 event: Yes [1, 13]: 7 (25%) numbers of subjects (%)
End point Type 1 event: No [1, 14]: 3 (50%) numbers of subjects (%)
End point Type 1 event: Yes [1, 14]: 3 (50%) numbers of subjects (%)
End point Type 1 event: No [1, 15]: 37 (82%) numbers of subjects (%)
End point Type 1 event: Yes [1, 15]: 8 (18%) numbers of subjects (%)
End point Type 1 event: No [1, 16]: 24 (77%) numbers of subjects (%)
End point Type 1 event: Yes [1, 16]: 7 (23%) numbers of subjects (%)
End point Type 1 event: No [1, 17]: 3 (75%) numbers of subjects (%)
End point Type 1 event: Yes [1, 17]: 1 (25%) numbers of subjects (%)
Adjusted Hazard Ratio (95% CI), association between VNTR polymorphism and Type 1 event ([1]; Caucasians): 0.542 (0.185-1.590)
Unadjusted Hazard Ratio (95% CI), association between VNTR polymorphism and Type 1 event ([1]; Caucasians): 0.548 (0.194-1.547)
End point Type 1 event: No [1, 18]: 12 (71%) numbers of subjects (%)
End point Type 1 event: Yes [1, 18]: 5 (29%) numbers of subjects (%)
End point Type 1 event: No [1, 19]: 54 (72%) numbers of subjects (%)
End point Type 1 event: Yes [1, 19]: 21 (28%) numbers of subjects (%)
End point Type 1 event: No [1, 20]: 72 (73%) numbers of subjects (%)
End point Type 1 event: Yes [1, 20]: 26 (27%) numbers of subjects (%)
Adjusted Hazard Ratio (95% CI), association between VNTR polymorphism and Type 1 event ([1]; whole population): 0.824 (0.317-2.138)
Unadjusted Hazard Ratio (95% CI), association between VNTR polymorphism and Type 1 event ([1]; whole population): 0.886 (0.353-2.225)
